According to ChEMBL document CHEMBL1201862, “PubChem BioAssay data set” (2004):
The source made the active and inactive calls.

Key:
[1] = growth suppression of PTEN-null colon cells, dose response, cell-based, HCT116 PTEN knockout (AID 1047); assay type: functional;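 note: HCT116 colon tumor cells with PTEN knocked out; cells exposed to compound for 60 hours before readout; potency for loss of cell viability measured by luminescence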
[2] = growth suppression of beta-catenin-knockout colon cells, dose response, cell-based, HCT116, human colon tumor (AID 1045); assay type: functional;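 note: HCT116 colon tumor cells with beta catenin knocked out; cells exposed to compound for 60 hours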
[3] = target: T1, Heat shock factor protein 1 (Mus musculus, UniProt P38532); assay: inhibition of MG132-induced HSE-luciferase signal, confirmation, cell-based, NIH3T3, luminescence, dose retest (AID 2382); assay type: functional;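 note: NIH3T3 fibroblasts with HSF1-driven luciferase reporter stressed by proteasome inhibitor MG132; luminescence from HSF1-driven luciferase expression after 8 hours of MG132 stress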
T1 sequence (P38532 whole entry): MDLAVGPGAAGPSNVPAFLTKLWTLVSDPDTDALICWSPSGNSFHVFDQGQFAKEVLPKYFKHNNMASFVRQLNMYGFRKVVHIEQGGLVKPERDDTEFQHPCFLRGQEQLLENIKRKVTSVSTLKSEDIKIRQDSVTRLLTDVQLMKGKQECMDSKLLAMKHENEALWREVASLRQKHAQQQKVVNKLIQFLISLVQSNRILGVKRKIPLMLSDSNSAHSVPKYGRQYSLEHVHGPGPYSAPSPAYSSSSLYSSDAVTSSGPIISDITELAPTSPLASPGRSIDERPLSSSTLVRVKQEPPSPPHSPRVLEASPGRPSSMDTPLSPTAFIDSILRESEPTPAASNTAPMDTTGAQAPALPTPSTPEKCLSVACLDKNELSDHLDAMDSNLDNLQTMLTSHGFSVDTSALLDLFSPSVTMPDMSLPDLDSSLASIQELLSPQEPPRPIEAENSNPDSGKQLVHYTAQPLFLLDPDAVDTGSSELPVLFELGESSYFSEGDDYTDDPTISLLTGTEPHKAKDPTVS

Large T antigen = Large T antigen (Simian virus 40, UniProt P03070); assay type: functional, Betapolyomavirus macacae;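 note: Confirmatory-stage PubChem screen for compounds that inhibit SV40 T antigen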
[4] = Luminescence Cell-Based Dose Retest to Confirm Inhibitors of Cancer Stem Cells. [Related pubchem assays (depositor defined):AID2717, AID2721]; assay type: functional; details: Homo sapiens
[5] = inhibitors of firefly luciferase expression or activity, dose response, H4 neuroglioma cells, luminescence (AID 1990); assay type: functional, cell-based
[6] = Luminescence Cell-Based Dose Response HTS to Identify Inhibitors of 5'UTR Stem-Loop Driven Prion Protein mRNA Translation in H4 Neuroglioblastoma Cells. [Related pubchem assays: 1827 (Project Summary), 1813 (Primary HTS)]; assay type: functional
[7] = inhibitors of SNCA 5'UTR-driven reporter translation, confirmation, H4 neuroglioma cells, luminescence (AID 1988); assay type: functional, cell-based
[8] = target: T2, Rac GTPase-activating protein 1 (Homo sapiens, UniProt Q9H0H5); assay: MgcRacGAP GTPase-activating activity inhibitors, confirmation, biochemical, ADP Hunter fluorescence, primary and confirmatory (AID 624330); assay type: functional
T2 sequence (Q9H0H5 whole entry): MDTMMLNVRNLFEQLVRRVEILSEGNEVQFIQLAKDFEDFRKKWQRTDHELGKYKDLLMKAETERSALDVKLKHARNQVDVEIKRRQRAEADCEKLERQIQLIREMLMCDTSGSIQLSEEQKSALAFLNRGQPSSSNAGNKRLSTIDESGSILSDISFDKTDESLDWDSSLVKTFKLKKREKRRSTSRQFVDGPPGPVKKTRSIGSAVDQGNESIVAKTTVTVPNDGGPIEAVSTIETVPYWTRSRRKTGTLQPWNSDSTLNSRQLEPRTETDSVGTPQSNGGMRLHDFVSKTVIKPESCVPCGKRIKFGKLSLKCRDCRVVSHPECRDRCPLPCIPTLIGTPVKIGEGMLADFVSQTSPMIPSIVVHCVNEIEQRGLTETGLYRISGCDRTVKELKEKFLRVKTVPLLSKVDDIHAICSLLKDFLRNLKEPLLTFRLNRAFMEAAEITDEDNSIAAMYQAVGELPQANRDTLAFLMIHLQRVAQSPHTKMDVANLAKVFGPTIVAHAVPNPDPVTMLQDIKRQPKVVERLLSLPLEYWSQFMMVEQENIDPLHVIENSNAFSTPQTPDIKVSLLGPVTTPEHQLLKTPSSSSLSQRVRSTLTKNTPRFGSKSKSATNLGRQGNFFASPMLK

INS1 = assay: beta cell apoptosis inhibitors, cytokine rescue, dose response, luminescence, retest (AID 449756); assay type: functional, cell-based; details: Rattus norvegicus;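 note: cell death triggered by IL-1 beta plus TNF-alpha plus IFN-gamma mixture; protective hits raise ATP signal compared with cytokine alone wells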
[9] = target: T3, Corticotropin-releasing factor receptor 2/Corticotropin-releasing factor-binding protein (Homo sapiens, UniProt P24387+Q13324); assay: Dose Response confirmation of uHTS hits for small molecule antagonists of the CRF-binding protein and CRF-R2 receptor complex.; assay type: functional; details: read-out: IC50_Mean
T3 sequence (Q13324 whole entry): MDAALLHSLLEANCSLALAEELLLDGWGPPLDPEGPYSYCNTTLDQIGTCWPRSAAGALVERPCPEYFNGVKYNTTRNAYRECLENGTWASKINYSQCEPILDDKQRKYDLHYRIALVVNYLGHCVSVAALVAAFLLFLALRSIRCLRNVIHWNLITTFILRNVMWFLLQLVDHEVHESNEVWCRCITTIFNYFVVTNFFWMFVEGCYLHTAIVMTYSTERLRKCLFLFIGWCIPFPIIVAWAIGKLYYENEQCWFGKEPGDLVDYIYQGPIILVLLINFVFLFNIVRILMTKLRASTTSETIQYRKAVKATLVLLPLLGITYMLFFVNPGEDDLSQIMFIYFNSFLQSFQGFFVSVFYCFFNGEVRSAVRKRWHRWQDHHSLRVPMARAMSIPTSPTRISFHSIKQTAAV
T3 sequence (P24387 whole entry): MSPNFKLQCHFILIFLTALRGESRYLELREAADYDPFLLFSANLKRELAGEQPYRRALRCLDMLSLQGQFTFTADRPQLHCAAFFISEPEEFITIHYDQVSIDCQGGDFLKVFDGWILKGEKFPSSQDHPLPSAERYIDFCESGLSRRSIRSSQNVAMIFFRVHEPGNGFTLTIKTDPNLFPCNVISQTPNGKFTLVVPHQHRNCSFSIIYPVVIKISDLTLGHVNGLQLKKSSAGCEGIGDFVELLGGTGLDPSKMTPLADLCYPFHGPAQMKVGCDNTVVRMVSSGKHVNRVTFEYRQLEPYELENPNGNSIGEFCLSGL

[10] = target: T3, Corticotropin-releasing factor receptor 2/Corticotropin-releasing factor-binding protein; assay: activators of CRF receptor 2 with binding protein – uHTS hits, confirmation (AID 602473); assay type: functional; details: read-out: EC50_Mean
Cytochrome P450 1A2 = target: T4, Cytochrome P450 1A2 (Homo sapiens, UniProt P05177);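 note: PubChem cytochrome P450 panel assay, CYP1A2 panel member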
T4 sequence (P05177 whole entry): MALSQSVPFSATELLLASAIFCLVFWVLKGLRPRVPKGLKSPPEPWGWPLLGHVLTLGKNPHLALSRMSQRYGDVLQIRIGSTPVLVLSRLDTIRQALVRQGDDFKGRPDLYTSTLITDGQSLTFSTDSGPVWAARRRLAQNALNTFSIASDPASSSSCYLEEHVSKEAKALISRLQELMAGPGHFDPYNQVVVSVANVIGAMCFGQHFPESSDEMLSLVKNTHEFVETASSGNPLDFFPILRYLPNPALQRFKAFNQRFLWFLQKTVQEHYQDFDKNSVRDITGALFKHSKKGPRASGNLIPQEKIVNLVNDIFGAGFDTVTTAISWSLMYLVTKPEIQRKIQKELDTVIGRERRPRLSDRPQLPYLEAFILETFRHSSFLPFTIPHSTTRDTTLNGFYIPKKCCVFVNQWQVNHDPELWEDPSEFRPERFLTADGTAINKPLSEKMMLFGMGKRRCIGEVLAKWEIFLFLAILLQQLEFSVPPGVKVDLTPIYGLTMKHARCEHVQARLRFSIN

Cytochrome P450 2C9 = Cytochrome P450 2C9 (Homo sapiens, UniProt P11712)
Cytochrome P450 2C19 = Cytochrome P450 2C19 (Homo sapiens, UniProt P33261); assay: Cytochrome panel assay with activity outcomes. Panel member name: p450-cyp2c19 Compounds with AC50 equal or less than 10 uM are considered active; assay type: functional; details: read-out: AC50
[11] = target: T1, Heat shock factor protein 1; assay: HSF1 potentiators in luciferase reporter cells, confirmation, cell-based, NIH3T3, luminescence, dose retest (AID 435004); assay type: functional;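 note: stress induced by proteasome inhibitor MG132 added 30 min after compound; luciferase reporter driven by HSF1 response element in NIH3T3 cells; actives raise luminescence as potentiators of the MG132 stress response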

Large T antigen, sequence (P03070 whole entry): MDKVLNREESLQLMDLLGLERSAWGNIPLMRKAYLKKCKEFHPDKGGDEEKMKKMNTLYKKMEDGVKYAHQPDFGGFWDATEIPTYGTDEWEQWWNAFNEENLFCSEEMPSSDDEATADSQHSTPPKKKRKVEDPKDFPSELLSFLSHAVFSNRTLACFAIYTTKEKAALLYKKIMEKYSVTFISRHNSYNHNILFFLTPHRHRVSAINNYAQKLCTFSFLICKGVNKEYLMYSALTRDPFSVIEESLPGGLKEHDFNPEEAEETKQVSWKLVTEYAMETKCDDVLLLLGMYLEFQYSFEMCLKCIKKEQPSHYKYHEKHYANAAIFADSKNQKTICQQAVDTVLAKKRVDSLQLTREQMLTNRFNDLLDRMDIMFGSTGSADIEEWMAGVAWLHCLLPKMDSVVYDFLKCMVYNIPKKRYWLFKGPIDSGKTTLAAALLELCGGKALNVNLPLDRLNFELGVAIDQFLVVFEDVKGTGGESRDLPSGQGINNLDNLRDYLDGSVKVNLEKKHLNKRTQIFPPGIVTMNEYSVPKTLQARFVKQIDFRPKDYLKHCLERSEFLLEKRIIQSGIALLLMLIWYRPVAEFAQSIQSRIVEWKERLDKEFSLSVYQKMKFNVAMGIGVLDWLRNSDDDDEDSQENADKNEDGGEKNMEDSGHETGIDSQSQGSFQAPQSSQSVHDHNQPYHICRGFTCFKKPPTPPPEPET
Cytochrome P450 2C9, sequence (P11712 whole entry): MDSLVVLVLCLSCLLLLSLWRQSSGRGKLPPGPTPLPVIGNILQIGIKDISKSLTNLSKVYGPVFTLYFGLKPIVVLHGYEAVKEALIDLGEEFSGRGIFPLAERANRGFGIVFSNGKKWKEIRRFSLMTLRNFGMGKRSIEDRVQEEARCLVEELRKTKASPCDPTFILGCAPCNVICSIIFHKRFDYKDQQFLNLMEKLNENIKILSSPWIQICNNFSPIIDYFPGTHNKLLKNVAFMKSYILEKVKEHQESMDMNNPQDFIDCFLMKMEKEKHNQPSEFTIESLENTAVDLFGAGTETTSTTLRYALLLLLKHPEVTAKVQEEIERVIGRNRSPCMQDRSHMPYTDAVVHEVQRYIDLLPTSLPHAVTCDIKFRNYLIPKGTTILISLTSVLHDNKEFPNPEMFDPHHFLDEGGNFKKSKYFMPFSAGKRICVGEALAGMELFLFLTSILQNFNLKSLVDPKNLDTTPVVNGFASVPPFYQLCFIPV
Cytochrome P450 2C19, sequence (P33261 whole entry): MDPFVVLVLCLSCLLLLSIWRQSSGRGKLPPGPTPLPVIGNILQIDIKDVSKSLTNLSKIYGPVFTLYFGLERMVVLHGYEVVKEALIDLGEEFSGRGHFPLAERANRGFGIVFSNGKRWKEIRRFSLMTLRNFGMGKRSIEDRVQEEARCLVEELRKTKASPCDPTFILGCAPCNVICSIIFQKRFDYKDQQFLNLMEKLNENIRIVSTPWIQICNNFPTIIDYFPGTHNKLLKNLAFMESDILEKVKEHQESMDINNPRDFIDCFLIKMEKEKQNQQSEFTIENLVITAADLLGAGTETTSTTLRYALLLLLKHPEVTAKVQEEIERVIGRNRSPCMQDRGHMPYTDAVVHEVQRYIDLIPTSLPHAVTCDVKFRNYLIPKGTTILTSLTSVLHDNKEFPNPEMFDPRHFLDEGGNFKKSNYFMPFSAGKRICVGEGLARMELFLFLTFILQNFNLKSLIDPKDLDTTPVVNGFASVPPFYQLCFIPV

| Structure (SMILES) | EC50 [1] | EC50 [2] | IC50 (Large T antigen) | further results |
| --- | --- | --- | --- | --- |
| CCc1nn2cc(C(=O)c3cc(Cl)ccc3O)cnc2c1-c1ccc(F)cc1 | 30.7 µM (active) | 28.3 µM (active) | – | – |
| Cc1cccc2sc(NNC(=O)C3COc4ccccc4O3)nc12 (stereo not drawn) | 38.9 µM (active) | 36.7 µM (active) | – | EC50 [3]: > 195 µM (not active) |
| O=C(c1ccc([N+](=O)[O-])cc1)N1CCN(c2cccc3[nH]ccc23)CC1 | – | – | 25.9 µM (active) | – |
| CN(CC(=O)Nc1ccc(Cl)c(Cl)c1)C(=O)C12CC3CC(CC(C3)C1)C2 | – | – | – | AC50 [4]: 5.44 µM (active) |
| COc1ccc(C2=Nn3c(nnc3-c3ccncc3)SC2)cc1OC | 19.7 µM (active) | 336 µM (active) | – | EC50 [5]: 12.4 µM (active); EC50 [6]: 14.2 µM (active); EC50 [7]: 50.8 µM (active) |
| Oc1ccc(N2CCN(C(=S)NCCc3ccccc3)CC2)cc1 | – | – | 8.73 µM (active) | IC50 [8]: 26.1 µM (active) |
| CCOc1ccc(NCc2nnc(SCC(=O)Nc3cc(C)on3)n2-c2ccc(OC)cc2)cc1 | – | – | 30.1 µM (active) | EC50 [3]: > 195 µM (not active) |
| CCCCOC(=O)c1ccc(NC(c2ccc(C)cc2)P(=O)(OC)OC)cc1 (stereo not drawn) | – | – | – | AC50 (INS1): 30.8 µM (active); IC50 [9]: > 47.1 µM (inactive); EC50 [10]: > 53 µM (inactive) |
| COc1cc(/C=C(\C#N)C(=O)N2CCCCC2)ccc1O | – | – | 13 µM (active) | – |
| C=CCOc1cccc(CNc2ccc3[nH]c(O)nc3c2)c1 | – | – | 14.4 µM (active) | IC50 [9]: > 47.1 µM (inactive); EC50 [10]: > 53 µM (inactive) |
| O=c1c(Cl)c(NCc2ccccc2Cl)cnn1C12CC3CC(CC(C3)C1)C2 | – | – | – | AC50 [4]: 0.508 µM (active) |
| COc1ccccc1CN(Cc1cc2cc(C)cc(C)c2nc1O)Cc1nnnn1CC1CCCO1 (stereo not drawn) | 44.9 µM (active) | 54.9 µM (active) | – | AC50 (Cytochrome P450 1A2): 20 µM (inconclusive); AC50 (Cytochrome P450 2C9): 14.1 µM (inconclusive) |
| Cc1ccc(CNc2ccc3c(c2)ncn3C(C)C)cc1 | – | – | 42.6 µM (active) | – |
| Cc1ccc(NC(=O)/C(=C\c2cccc([N+](=O)[O-])c2)NC(=O)c2cccs2)cc1 | 22.8 µM (active) | 24.1 µM (active) | – | AC50 (Cytochrome P450 2C19): 17.8 µM (inconclusive); AC50 (Cytochrome P450 2C9): 39.8 µM (inconclusive) |
| CCCCn1c(-c2cccc(C)c2)nc2cc3nc(O)c(C(C)C)nc3cc21 | – | – | – | AC50 [4]: 6.63 µM (active) |
| CCOc1ccc2ncc(S(=O)(=O)c3ccc(C)cc3)c(N3CCC4(CC3)OCCO4)c2c1 | 40.5 µM (active) | 74 µM (active) | – | EC50 [11]: > 260 µM (inactive) |
| CCOc1ccc(-n2c(=O)c3c4c(sc3n(CC(=O)NCc3ccco3)c2=O)CCC4)cc1 | 30.2 µM (active) | 27.7 µM (active) | – | – |

| Structure (SMILES) | EC50 [1] | EC50 [2] | IC50 (Large T antigen) | further results |
| --- | --- | --- | --- | --- |
| Cc1cc2nc(-c3ccc(SCC(=O)N4CCc5ccccc54)nc3)[nH]c2cc1C | 6.92 µM (active) | 7.55 µM (active) | – | AC50 (Cytochrome P450 1A2): 3.16 µM (inconclusive) |
| O=C(Nc1nccs1)c1ccc(COc2ccccc2Br)o1 | – | – | – | AC50 [4]: 3.14 µM (active) |
| COc1ccc(N2C(=O)/C(=C\NNS(=O)(=O)c3ccc(C)cc3)c3ccccc3C2=O)cc1OC | 40.4 µM (active) | – | – | EC50 [10]: > 53 µM (inactive) |
| CCCc1cc(-c2[nH]nc(C(=O)OCC)c2-c2cscn2)c(O)cc1O | – | – | 23.4 µM (active) | – |
| NNC(=O)C(=O)Nc1ccc(O)cc1 | – | – | 9.75 µM (active) | – |
| COC(=O)C1=C(c2cccc(C#N)c2)C[C@@H]2CC[C@H]1N2C(=O)NC1Cc2ccccc2C1 | – | – | – | AC50 [4]: > 195 µM (inactive) |
| Cc1cc(NC(=O)c2cc(-c3ccncc3)nc3ccccc23)ccc1Br | – | – | – | AC50 [4]: 4.23 µM (active) |
| CC1=C(C(=O)Nc2ccccc2C)C(c2ccc(C)o2)n2c(s/c(=C/c3ccccc3)c2=O)=N1 (stereo not drawn) | 347 µM (active) | 442 µM (active) | – | – |
| CN(C)c1ccc(/C=N/c2ccc(N(C)C)cc2)cc1 | 28.5 µM (active) | 524 µM (active) | – | – |
| Nc1ccccc1/N=C/c1ccc(-c2cccc(Cl)c2)o1 | – | – | – | AC50 [4]: 3.68 µM (active) |
| Cc1cc(SCC(=O)N/N=C/c2ccc(O)c(O)c2)nc2ccccc12 | – | – | 6.59 µM (active) | – |
| COc1cc(SC#N)ccc1/N=C/c1c(C)nn(-c2cccc3ccccc23)c1O | – | 93.7 µM (active) | 14.1 µM (active) | – |
| O=C1C2C3C=CC(C4CC34)C2C(=O)N1/N=C/c1ccc(-c2ccc(F)cc2[N+](=O)[O-])o1 (stereo not drawn) | – | – | – | AC50 [4]: 1.08 µM (active) |
| COc1cc(/C=N/NC(=O)C2=NNC(=O)C2C)ccc1O (stereo not drawn) | – | – | 26.7 µM (active) | IC50 [8]: 76.3 µM (active) |
| O=C(CSCc1cccc(Br)c1)N/N=C/c1ccc2c(c1)OCO2 | – | – | – | AC50 [4]: 3 µM (active) |
| Nc1ccc(O)c(C(=O)O)c1 [MESALAMINE] | – | – | 19.1 µM (active) | AC50 (Cytochrome P450 2C9): 12.6 µM (inconclusive) |
